Laboratory results reported in patent US9783590B2 (priority 2003, dated 2017).

Tests used:
human subjects = experiment: PTC phenotype determination (blinded sorting taste threshold test); format: in vivo
Description: Subjects began tasting a solution of 1 micromolar PTC (solution #14) and proceeded in 2-fold increasing concentration increments (solutions 13, 12, 11 . . . ) until a bitter taste was perceived. Subjects then performed a blinded sorting test containing 3 cups of PTC solution and 3 cups of water. Raw taste threshold was the most dilute solution at which the subject could correctly sort all 6 cups. We also included a quinine threshold measurement according to Blakeslee & Salmon (Proc. Natl. Acad. Sci. USA 21, 84, 1935) to identify and exclude individuals with general deficits in bitter taste (aguesia). For dichotomous assignment of phenotype, we considered individuals unable to taste PTC before solution #6, i.e. at concentrations less than 267 micromolar PTC, to be non-tasters. Although the classic method includes corrections for age and sex, analysis of our raw PTC taste threshold data indicated only a modest sex effect, with females more sensitive than males (p=0.00324, proportion of variance explained=5.1%). No effect of age on PTC scores was observed. As a result, raw PTC threshold scores were used for all analyses.
The Utah C.E.P.H. families were enrolled in conjunction with the Utah Genetic Reference Project under University of Utah IRB approved protocol #6090-96, and consisted of individuals of Northern European ancestry. Subjects in the NIH replication sample were enrolled under NIH/NINDS IRB approved protocol # DC-01-230, and were of European, Asian, African American, and Native American ancestry. Human Diversity Panel DNAs (sub-Saharan African, Asian, and Southwest Native American) and primate DNAs were obtained from the Coriell Cell Repository, Camden, N.J. The Utah sample consists of 27 families comprising 269 individuals; both haplotype and phenotype information was available for 180 of these individuals. The NIH replication sample of consisted of 85 unrelated individuals of known haplotype and phenotype; 51 were European, 5 Pakistani, 23 East Asian, and 6 African-American. One African-American is not considered in the analysis due to a rare AAV/AAI diplotype. H is raw PTC score is 7.

T2R16 = target: T1, T2R16 (Homo sapiens, UniProt Q9NYV7); settings: in vitro cell based assays, Bufe et al. 2002; cited from earlier work
T1 sequence (Q9NYV7 1-291): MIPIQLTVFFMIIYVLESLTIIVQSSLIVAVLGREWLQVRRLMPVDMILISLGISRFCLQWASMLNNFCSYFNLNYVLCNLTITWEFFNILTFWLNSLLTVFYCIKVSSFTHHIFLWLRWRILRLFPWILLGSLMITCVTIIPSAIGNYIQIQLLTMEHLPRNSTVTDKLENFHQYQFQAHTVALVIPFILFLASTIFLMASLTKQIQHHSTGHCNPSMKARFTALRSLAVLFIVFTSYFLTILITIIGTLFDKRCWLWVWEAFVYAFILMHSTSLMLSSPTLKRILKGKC

Row | SMILES | mean PTC score (human subjects; AVI homozygotes, NIH sample) | mean PTC score (human subjects; AVI homozygotes, Utah sample) | mean PTC score (human subjects; PAV heterozygotes, NIH sample) | mean PTC score (human subjects; PAV heterozygotes, Utah sample) | mean PTC score (human subjects; PAV homozygotes, NIH sample) | mean PTC score (human subjects; PAV homozygotes, Utah sample, score = number of most dilute solution correctly sorted (#14 = 1 micromolar, 2-fold steps)) | raw PTC score (human subjects; one subject, AAV/AAI diplotype, NIH sample) | receptor response to tastant (T2R16)
1 | NC(=S)Nc1ccccc1 [PTC, phenylthiocarbamide] | 1.86 | 4.31 | 8.81 | 9.65 | 10.00 | 10.69 | 7 | 
2 | OCc1ccccc1O[C@@H]1O[C@H](CO)[C@@H](O)[C@H](O)[C@H]1O [salicin] |  |  |  |  |  |  |  | responds
